Experimental data as given in ChEMBL document CHEMBL1201862, “PubChem BioAssay data set” (2004).
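These data come from cells grown in 96-well plates and exposed to compound for 48 hours at five concentrations. GI50 marks 50% less growth.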 Activity calls are given as the source filed them. Rule as the data show it: active = GI50 up to about 1.1 µM and inactive = higher.

Key:
Experiment in all cases: DTP human tumour cell line panel, 48 h
OVCAR-4 = tested on: OVCAR-4
M14 = tested on: M14
CAKI-1 = tested on: CAKI-1
MDA-MB-435 = tested on: MDA-MB-435
COLO 205 = tested on: COLO 205
HCC 2998 = tested on: HCC 2998
SNB-75 = tested on: SNB-75
SF-268 = tested on: SF-268
RXF 393 = tested on: RXF 393
SNB-19 = tested on: SNB-19
ACHN = tested on: ACHN
OVCAR-5 = tested on: OVCAR-5
PC-3 = tested on: PC-3
OVCAR-8 = tested on: OVCAR-8
HL-60 = tested on: HL-60
DU-145 = tested on: DU-145
NCI-H460 = tested on: NCI-H460
NCI/ADR-RES = tested on: NCI/ADR-RES
OVCAR-3 = tested on: OVCAR-3
A498 = tested on: A498

Structure (SMILES) | GI50 (OVCAR-4) | GI50 (M14) | GI50 (CAKI-1) | GI50 (MDA-MB-435) | GI50 (COLO 205) | GI50 (HCC 2998) | GI50 (SNB-75) | GI50 (SF-268) | GI50 (RXF 393) | GI50 (SNB-19) | GI50 (ACHN) | GI50 (OVCAR-5) | GI50 (PC-3) | GI50 (OVCAR-8) | GI50 (HL-60) | GI50 (DU-145) | GI50 (NCI-H460) | GI50 (NCI/ADR-RES) | GI50 (OVCAR-3) | GI50 (A498)
CCN(CC)C(=O)Cn1c(C)cc2ccccc21 | > 100 µM (inactive) | > 100 µM (inactive) | > 100 µM (inactive) | > 100 µM (inactive) | > 100 µM (inactive) | > 100 µM (inactive) | > 100 µM (inactive) | > 100 µM (inactive) | > 100 µM (inactive) | > 100 µM (inactive) | > 100 µM (inactive) | > 100 µM (inactive) | > 100 µM (inactive) | > 100 µM (inactive) | > 100 µM (inactive) | > 100 µM (inactive) | > 100 µM (inactive) | > 100 µM (inactive) | > 100 µM (inactive) | 
O=C1c2ccccc2C(=O)N1n1c(Cc2ccc(Cl)cc2)n[nH]c1=O | > 100 µM (inactive) | > 100 µM (inactive) | > 100 µM (inactive) | > 100 µM (inactive) | > 100 µM (inactive) | > 100 µM (inactive) | > 100 µM (inactive) |  |  | > 100 µM (inactive) | > 100 µM (inactive) | > 100 µM (inactive) | > 100 µM (inactive) | > 100 µM (inactive) |  | > 100 µM (inactive) | > 100 µM (inactive) | > 100 µM (inactive) | > 100 µM (inactive) | > 100 µM (inactive)
COC(=O)c1ccccc1C1=C([N+](=O)[O-])C(c2cccc(Br)c2)C(C#N)=C(N)O1 (stereo unspecified) |  | 28 µM (inactive) |  | 22.7 µM (inactive) | 33 µM (inactive) | 26.3 µM (inactive) | 25.4 µM (inactive) | 25.8 µM (inactive) | 18.3 µM (inactive) | 91.6 µM (inactive) | 23.6 µM (inactive) | > 100 µM (inactive) | 40.6 µM (inactive) | 21 µM (inactive) | 29 µM (inactive) | 32.3 µM (inactive) | 41.3 µM (inactive) | 23.3 µM (inactive) | 20.7 µM (inactive) | 
O=C(CC(NC(=O)OCc1ccccc1)C(=O)NC1Cc2ccccc2C1=O)OCc1ccccc1 (stereo unspecified) |  | > 100 µM (inactive) | > 100 µM (inactive) | > 100 µM (inactive) |  | > 100 µM (inactive) | 59.3 µM (inactive) | > 100 µM (inactive) | > 100 µM (inactive) | > 100 µM (inactive) | > 100 µM (inactive) | > 100 µM (inactive) | > 100 µM (inactive) | > 100 µM (inactive) |  | > 100 µM (inactive) | > 100 µM (inactive) | > 100 µM (inactive) | > 100 µM (inactive) | 
CC(C)[C@@H]1CC[C@@H](C)C[C@H]1OC(=O)c1c2n(c3ccccc13)C[C@H]1OC(C)(C)O[C@@H]21 | 20.9 µM (inactive) | 22.9 µM (inactive) | 26.9 µM (inactive) | 30.5 µM (inactive) | 72.4 µM (inactive) | 26.3 µM (inactive) |  | 19.2 µM (inactive) | 13.7 µM (inactive) |  | 8.22 µM (inactive) | > 100 µM (inactive) | 5.71 µM (inactive) | 20.9 µM (inactive) | 5.56 µM (inactive) | 20 µM (inactive) |  | 13.2 µM (inactive) | 18.2 µM (inactive) | 
C/C(=C\c1ccc(Cl)c(Cl)c1)[N+](=O)[O-] | 2.51 µM (inactive) | 0.738 µM (active) |  | 2.23 µM (inactive) |  | 4.36 µM (inactive) | 4.2 µM (inactive) | 1.4 µM (inactive) |  | 2.39 µM (inactive) | 1.98 µM (inactive) | 1.96 µM (inactive) |  | 1.13 µM (inactive) | 1.52 µM (inactive) | 1.63 µM (inactive) | 20.7 µM (inactive) | 3.41 µM (inactive) | 1.65 µM (inactive) | 4.4 µM (inactive)
